Assay results as given in ChEMBL document CHEMBL1131212, “Synthesis and adrenergic activity of a new series of N-aryl dicyclopropyl ketone oxime ethers: SAR and stereochemical aspects” (J Med Chem, 1998).

Columns and labels:
[1] = target: T1, Adrenergic receptor alpha-1 (Rattus norvegicus, UniProt P15823+P23944+P43140); assay: Inhibition of alpha-1 adrenergic receptor isolated from rat ventricle homogenates
T1 sequence (P15823 whole entry): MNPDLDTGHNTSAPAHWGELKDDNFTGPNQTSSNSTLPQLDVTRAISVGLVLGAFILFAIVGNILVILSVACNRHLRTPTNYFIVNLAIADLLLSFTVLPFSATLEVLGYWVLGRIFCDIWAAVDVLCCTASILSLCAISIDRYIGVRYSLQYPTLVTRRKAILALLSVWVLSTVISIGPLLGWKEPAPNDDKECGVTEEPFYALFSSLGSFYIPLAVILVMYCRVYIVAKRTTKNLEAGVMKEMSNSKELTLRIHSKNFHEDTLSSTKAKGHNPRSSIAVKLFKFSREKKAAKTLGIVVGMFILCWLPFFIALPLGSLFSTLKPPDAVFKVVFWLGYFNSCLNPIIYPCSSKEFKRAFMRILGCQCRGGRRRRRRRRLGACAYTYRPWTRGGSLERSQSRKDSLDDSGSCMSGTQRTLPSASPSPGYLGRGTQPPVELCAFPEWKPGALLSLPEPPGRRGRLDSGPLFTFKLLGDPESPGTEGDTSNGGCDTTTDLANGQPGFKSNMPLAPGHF
T1 sequence (P23944 whole entry): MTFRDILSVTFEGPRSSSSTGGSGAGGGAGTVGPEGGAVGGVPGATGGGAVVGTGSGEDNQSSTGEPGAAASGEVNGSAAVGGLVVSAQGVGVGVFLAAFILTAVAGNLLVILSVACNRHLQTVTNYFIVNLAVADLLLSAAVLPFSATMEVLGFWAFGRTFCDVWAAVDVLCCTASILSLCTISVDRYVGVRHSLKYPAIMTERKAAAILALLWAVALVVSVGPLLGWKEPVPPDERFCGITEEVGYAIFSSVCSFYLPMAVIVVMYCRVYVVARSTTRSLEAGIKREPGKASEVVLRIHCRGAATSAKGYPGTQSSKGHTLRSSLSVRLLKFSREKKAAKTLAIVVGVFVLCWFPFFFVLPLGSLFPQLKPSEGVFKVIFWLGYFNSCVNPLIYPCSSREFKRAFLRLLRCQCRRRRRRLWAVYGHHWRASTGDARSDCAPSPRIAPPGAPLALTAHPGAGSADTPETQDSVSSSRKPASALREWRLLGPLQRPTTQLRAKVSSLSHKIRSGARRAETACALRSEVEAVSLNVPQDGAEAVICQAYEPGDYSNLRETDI
T1 sequence (P43140 whole entry): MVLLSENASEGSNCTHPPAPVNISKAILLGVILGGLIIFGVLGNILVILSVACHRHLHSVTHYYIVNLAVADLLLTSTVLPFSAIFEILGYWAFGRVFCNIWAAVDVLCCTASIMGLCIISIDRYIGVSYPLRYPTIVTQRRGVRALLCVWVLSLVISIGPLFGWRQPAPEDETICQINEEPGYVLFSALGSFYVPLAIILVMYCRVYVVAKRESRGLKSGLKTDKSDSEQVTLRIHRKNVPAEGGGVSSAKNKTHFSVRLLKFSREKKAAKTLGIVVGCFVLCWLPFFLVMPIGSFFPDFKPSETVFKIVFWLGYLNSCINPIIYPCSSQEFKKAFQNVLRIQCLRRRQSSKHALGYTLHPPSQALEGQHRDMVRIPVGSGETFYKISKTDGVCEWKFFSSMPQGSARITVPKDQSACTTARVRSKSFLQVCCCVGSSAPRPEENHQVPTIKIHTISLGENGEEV

Adrenergic receptor beta [2] = target: T2, Adrenergic receptor beta (Rattus norvegicus, UniProt P18090+P10608+P26255); assay: Inhibition of beta adrenergic receptor isolated from rat ventricle homogenates.
Cavia porcellus [3] = organism: Cavia porcellus; assay: Chronotropic effect studied in right atria isolated from guinea pig and is expressed in pA2.; conditions: read-out: pA2 (converted)
Rattus norvegicus [4] = organism: Rattus norvegicus; assay: The compound was tested for percent increase in heart rate with respect to that measured after isoprenaline in 5-10 animals and showing significant increase (p <= 0.05) with respect to baseline values (293 +/- 7 to 310 +/- 5 […]).; type: functional
Rattus norvegicus [5] = assay: Tested for MED (smallest dose giving maximum effect) evaluated by dose-response curve, from 0.1 to 5 mg/kg in 5-10 animals on iv administration.; type: functional; conditions: dose mg/kg 0.1-5
Cavia porcellus [6] = organism: Cavia porcellus; assay: Ionotropic effect in electrically driven left atrial preparation (Atria isolated from guinea pig) and is expressed in pA2.; conditions: Cardiac atrium, read-out: pA2 (converted)
[7] = target: T3, Adrenergic receptor beta (Rattus norvegicus) (UniProt P18090+P10608+P26255)
[8] = target: Beta-1 adrenergic receptor (Cavia porcellus); assay: Beta-1 adrenergic receptor-Antagonism in isolated guinea pig atria. ( for R-enantiomer); conditions: read-out: pA2 app (converted)
Rattus norvegicus [9] = organism: Rattus norvegicus; assay: The compound was tested for percent increase in heart rate with respect to that measured after isoprenaline in 5-10 animals.; type: functional
[10] = target: T3, Adrenergic receptor beta (Rattus norvegicus); assay: In vitro inhibitory specificity for Beta adrenergic receptor was evaluated; ND=not determined; type: protein assay
Adrenergic receptor beta [11] = target: T2, Adrenergic receptor beta; assay: The compound was tested for the concentration to inhibit 50% of Beta adrenergic receptor isolated from rat ventricle homogenates; ND=not determined
Adrenergic receptor beta [12] = target: T2, Adrenergic receptor beta; assay: The compound was tested for the concentration to inhibit 50% of Beta adrenergic receptor isolated from rat ventricle homogenates.; type: functional

SMILES | IC50 [1] | IC50 (Adrenergic receptor beta [2]) | Kb (Cavia porcellus [3]) | Increase (Rattus norvegicus [4]) | MED (Rattus norvegicus [5]) | Kb (Cavia porcellus [6]) | Specificity [7] | Kb [8] | Increase (Rattus norvegicus [9]) | Specificity [10] | IC50 (Adrenergic receptor beta [11]) | IC50 (Adrenergic receptor beta [12])
Cc1ccc(NCC(O)CON=C(C2CC2)C2CC2)cc1 (stereo not drawn) | 15 µM | 7.6 nM | 12.6 nM | 64% | 2.5 µmol/kg | 10 nM | 1970 | 12.6 nM |  |  |  | 
OC(CNc1ccccc1I)CON=C(C1CC1)C1CC1 (stereo not drawn) | 53 µM | 108 nM | 1260 nM |  | 5.7 µmol/kg | 2510 nM | 490 |  | 10% |  |  | 
Cc1ccc(NCC(O)CON=C(C2CC2)C2CC2)nc1 (stereo not drawn) |  |  | 25100 nM |  |  |  |  |  |  |  |  | 
CCOC(=O)c1ccc(NCC(O)CON=C(C2CC2)C2CC2)cc1 (stereo not drawn) | 95.1 µM | 12.8 nM | 79.4 nM |  | 2.4 µmol/kg | 251 nM | 7430 |  | 10% |  |  | 
OC(CNc1ccc(C(F)(F)F)cc1)CON=C(C1CC1)C1CC1 (stereo not drawn) | > 100 µM | 13.8 nM | 63.1 nM | 47% | 2.2 µmol/kg | 126 nM | > 7250 |  |  |  |  | 
CN(CC(O)CON=C(C1CC1)C1CC1)c1ccccc1 (stereo not drawn) |  |  | 794000 nM |  |  |  |  |  |  |  |  | 
OC(CNc1ccc(I)cc1)CON=C(C1CC1)C1CC1 (stereo not drawn) | 27.5 µM | 4.1 nM | 15.8 nM | 64% | 1.6 µmol/kg | 63.1 nM | 6700 |  |  |  |  | 
OC(CNc1cccc(I)c1)CON=C(C1CC1)C1CC1 (stereo not drawn) | > 100 µM | 630 nM | 5010 nM | 42% | 7.8 µmol/kg | 3160 nM | > 160 |  |  |  |  | 
CCCCc1ccc(NCC(O)CON=C(C2CC2)C2CC2)cc1 (stereo not drawn) | 30.7 µM | 7 nM | 79.4 nM |  | 2.7 µmol/kg | 251 nM | 4390 |  | 10% |  |  | 
OC(CNc1nc2ccccc2s1)CON=C(C1CC1)C1CC1 (stereo not drawn) | > 100 µM | 3.4 nM | 15.8 nM |  | 4.1 µmol/kg | 25.1 nM | > 29400 |  | 10% |  |  | 
Oc1ccc(NCC(O)CON=C(C2CC2)C2CC2)cc1 (stereo not drawn) | 28.3 µM |  | 79.4 nM |  | 3.1 µmol/kg | 200 nM |  |  | 10% | 2730 | 10.4 nM | 
CC(C)(Cc1ccc(NCC(O)CON=C(C2CC2)C2CC2)cc1)[N+](=O)[O-] (stereo not drawn) | 12.6 µM |  | 20 nM |  | 2.4 µmol/kg | 79.4 nM | 3700 |  | 10% |  |  | 3.4 nM
O=[N+]([O-])c1ccc(NCC(O)CON=C(C2CC2)C2CC2)cc1 (stereo not drawn) | 19 µM | 7.9 nM | 100 nM |  | 1.8 µmol/kg | 251 nM | 2400 |  | 10% |  |  | 
CC(C)(N)Cc1ccc(NCC(O)CON=C(C2CC2)C2CC2)cc1 (stereo not drawn) |  |  | 501 nM |  |  |  |  |  |  |  |  | 
CC(C)NCC(O)COc1cccc2ccccc12 (stereo not drawn) [PROPRANOLOL] |  |  |  |  | 3 µmol/kg |  |  |  | 0% |  |  | 
